In paper PMC12040169 (PLOS Biology, 2025):

Test: in vitro
Conditions: human, hela cells, % viability

| Structure (SMILES) | viability at 28.5 h, 10 µM |
| --- | --- |
| CCC(C)(C)c1ccc(S(=O)(=O)N2CCN(Cc3ccc(O)c(F)c3)CC2)cc1 [CBK062968] | 91.7% |
| Cc1c(C(=O)NCc2ccncc2)nnn1-c1cccc(C(F)(F)F)c1 [CBK107396] | 88.7% |
| Cc1cccc(-c2noc(CCC(=O)NCC3CCCO3)n2)c1 (stereo not drawn) [CBK268241] | 118% |
| CCCCN(C=O)c1c(CC)nc2c(OCc3ccccc3C)cccn12 [CBK147639] | 92.2% |
| CC(NS(=O)(=O)c1ccc([N+](=O)[O-])cc1)C(=O)O (stereo not drawn) [CBK261834] | 90.5% |
| Cc1ccc(SCCC(=O)NC(CCC(=O)O)C(=O)O)cc1 (stereo not drawn) [CBK295173] | 88% |
| COc1ccc(CN2C(=S)N(CC3CCCCC3)[C@H]3[C@@H]2[C@H]2OC(=O)[C@@H]3C[C@H]2O)cc1 [CBK288936] | 117% |
| Cn1c(=O)n(C)c2cc(CN3CCN(C4CCCC4)C(=O)C3)ccc21 [CBK281909] | 97.1% |
| COc1ccc(-n2c(SCCCN3C(=O)c4cccc5cccc(c45)C3=O)nnc2-c2ccncc2)cc1 [CBK269123] | 94.2% |
| O=C(O)CC1(CC(=O)N2CCN(C(c3ccccc3)c3ccccc3)CC2)CCCC1 [CBK086174] | 98.7% |
| O=C(COc1ccc(-c2ccccc2)cc1)N/N=C/c1ccncc1 [CBK262210] | 93.2% |
| CC(=O)N1CCC(C(=O)NC(=O)NC2CCCCC2)CC1 [CBK034847] | 99.4% |
| CCS(=O)(=O)Nc1cc(C(F)(F)F)ccc1Cl [CBK111339] | 111% |
| C/C(=N\NC(=O)CNC(=O)c1ccc(Br)cc1)c1ccccc1 [CBK262020] | 103% |
| COc1ccnc(N2CCN(C(=O)c3cc(C(C)=O)cn3C)CC2)n1 [CBK306272] | 91.2% |
| CC(C)Nc1nccnc1OCc1ccsc1 [CBK115646] | 103% |
| c1ccc2oc(-c3cncc(N4CCN(CCN5CCCC5)CC4)n3)cc2c1 [CBK066052] | 97.1% |
| FC(F)(F)c1ccnc(Sc2ccccn2)n1 [CBK093786] | 99.3% |
| COc1ccc(OC(C)C(=O)Nc2cc(OC)c(Cl)cc2OC)cc1 (stereo not drawn) [CBK263627] | 96% |
| FC(F)(F)Oc1ccc(-c2nccnc2OCC2COc3ccccc3O2)cc1 (stereo not drawn) [CBK106845] | 97.7% |
| O=C(CN1C2CCC1CC(O)(c1ccco1)C2)N1c2ccccc2CCc2ccccc21 (stereo not drawn) [CBK286168] | 94% |
| Cc1csc(NC(=O)CN2CC=C(c3ccc(C)o3)CC2)n1 [CBK283606] | 96.5% |
| Cc1nc(=O)c(-c2ccccc2)c(C)n1-c1ccc2cn[nH]c2c1 [CBK288193] | 100% |

| Structure (SMILES) | viability at 28.5 h, 10 µM |
| --- | --- |
| Cc1c(Nc2nc3nonc3nc2Nc2cccc(Cl)c2)c(=O)n(-c2ccccc2)n1C [CBK263073] | 103% |
| CCC(CNC(=O)c1cccc(C)n1)N1CCCC1 (stereo not drawn) [CBK304803] | 116% |
| COCCN1CCOC2(CCN(C(=O)c3ccc4ccccc4c3)CC2)C1c1ccccc1O (stereo not drawn) [CBK116232] | 107% |
| Cc1ccc(-c2c[nH]c([C@@H]3COCCN3Cc3c[nH]cn3)n2)cc1 [CBK289315] | 94.8% |
| CCC(=O)NCc1ccc(-c2nc3ncccc3o2)cc1 [CBK270220] | 108% |
| CC(C)NC(=O)c1cc(C2CCN(C(=O)CCCc3ccc(F)cc3)C2)nc2ccccc12 (stereo not drawn) [CBK285921] | 95.2% |
| O=C(NCCCN1CCCC1)Nc1ccccc1[N+](=O)[O-] [CBK267959] | 97% |
| COCCCNc1nc2c(-c3ccc(Cl)cc3)nnn2c2ccccc12 [CBK287770] | 96.3% |
| CCC(Oc1ccccc1)C(=O)Nc1cc(OC)c(Cl)cc1OC (stereo not drawn) [CBK262235] | 112% |
| CSc1nnc(-c2sccc2OCc2ccc(Cl)cc2Cl)n1C [CBK067693] | 111% |
| OCC1CCCN1c1nccnc1-c1cccs1 (stereo not drawn) [CBK089060] | 106% |
| CC(=O)Nc1ccc(CNC(=O)CN(C)Cc2cccc(O)c2)cc1 [CBK307660] | 84.8% |
| c1csc(CN2CCC[C@H]2c2nc(-c3ccc(-n4ccnc4)nc3)no2)c1 [CBK288895] | 111% |
| COc1cc(/C=N/NC(=O)CNC(=O)c2ccncc2)ccc1O [CBK262013] | 102% |
| COc1ccc(-c2cc(Nc3ccc(N(C)C)cc3)ncn2)cc1OC [CBK036969] | 108% |
| CCOc1ccc(S(=O)(=O)Nc2ccc(O)c(C(=O)O)c2)cc1 [CBK299810] | 93.5% |
| Cn1c(=O)[nH]c(=O)c2c1nc(CN1CCOCC1)n2Cc1ccc(F)cc1 [CBK270040] | 99.2% |
| COc1cccc(NC(=S)NCCCN2CCOCC2)c1 [CBK264548] | 123% |
| CCOc1ccc(NC(=O)C2CCC(C)(C(=O)O)C2(C)C)cc1 (stereo not drawn) [CBK295665] | 106% |
| COc1ccc(OC)c(NC(=O)Cn2cc(C(C)=O)c3ccccc32)c1 [CBK268661] | 92.5% |
| Nc1ccc([C@@H]2CN(Cc3ccccc3)C[C@]23CCCC(=O)N3)cc1 [CBK284649] | 97.5% |
| COc1ccc(Nc2n[nH]c3nc(C)cc(=O)n23)cc1 [CBK288117] | 91.1% |
| CC(C)c1ccc(N2C(=O)N[C@@H]3CCN(C(=O)COc4ccccc4)[C@@H]3C2=O)cc1 [CBK289288] | 98.2% |

| Structure (SMILES) | viability at 28.5 h, 10 µM |
| --- | --- |
| CN1C(=O)[C@@H](OC(=O)c2cccnc2)C[C@H]1c1ccc(F)cc1 [CBK283649] | 104% |
| Cc1ccc(-c2cc(C(=O)NCc3ccc(F)cc3Cl)n[nH]2)cc1 [CBK288102] | 85.6% |
| COC(=O)CN1C(=O)N2CCCN=C2c2ccc(Cl)cc21 [CBK284402] | 89.8% |
| CC1CCCN(Cc2nc3c([nH]2)c(=O)n(C)c(=O)n3C)C1 (stereo not drawn) [CBK306054] | 88.7% |
| COc1ccc(C)cc1S(=O)(=O)N(C)CC(=O)Nc1cccc(C(C)=O)c1 [CBK268753] | 102% |
| CCOC(=O)CC1=C(C(=O)OCC)C(c2ccccc2C(F)(F)F)C(C#N)=C(N)O1 (stereo not drawn) [CBK262710] | 105% |
| CCN(CC)CCN(C(=O)NCCCSC)C(C)c1ccc(OC)c(OC)c1 (stereo not drawn) [CBK158803] | 94.3% |
| CC(Cn1cc(Cl)cn1)C(=O)NC(C)C1CC2CCC1C2 (stereo not drawn) [CBK281650] | 110% |
| CC(C)n1c(=O)n(CC(=O)N2CCc3ccccc32)c2cccnc21 [CBK283855] | 103% |
| COc1ccc(Br)cc1C1CCCN1C(=O)Cc1cnccc1C (stereo not drawn) [CBK304130] | 93.7% |
| Cc1ccccc1-c1ccccc1CC1(C(=O)N(C)C)CCN(C(=O)CC(C)(C)C)CC1 [CBK285715] | 95.1% |
| CC(C)n1cnnc1CN(C)C(=O)CCc1nc2ccccc2s1 [CBK304638] | 97% |
| CCOC(=O)c1ccc(S(=O)(=O)Nc2cc(C(=O)O)ccc2F)cc1 [CBK295308] | 84% |
| Cc1cccc(-c2nc(CN3CCOCC3)cs2)c1 [CBK270299] | 103% |
| CC(=O)Nc1ccc(OC(=O)c2ccc(Br)o2)cc1 [CBK293917] | 112% |
| O=C(Nc1ncc(Cc2ccc(F)cc2)s1)C1CCCCC1 [CBK058611] | 105% |
| Cc1ccc([N+](=O)[O-])cc1NC(=O)CSC1=NCCS1 [CBK267489] | 88.6% |
| O=C(CC1(O)C(=O)N(Cc2ccc3c(c2)OCO3)c2ccccc21)c1ccccn1 (stereo not drawn) [CBK269725] | 94.2% |
| Cc1c(C(=O)N2CCC(c3nc(C)n4ccsc34)CC2)cnn1C [CBK285201] | 111% |
| Cc1ccc(-c2nnc(CNC(=O)C3(c4ccccc4)CC3)o2)s1 [CBK284642] | 95.9% |
| CCOc1ccc(Cl)cc1CNc1nnnn1CC [CBK288128] | 92.9% |
| CCOC(=O)c1ccccc1NC(=O)CC1Nc2ccccc2NC1=O (stereo not drawn) [CBK263990] | 91.3% |
| FC(F)(F)c1ccnc(SCCc2cnccn2)n1 [CBK105300] | 88.6% |

| Structure (SMILES) | viability at 28.5 h, 10 µM |
| --- | --- |
| OCCOc1ncnc2ccccc12 [CBK001412] | 107% |
| O=C(c1ccc(OC(F)(F)F)cc1)N1CCC2(CCN(Cc3ccccc3)CC2)C1 [CBK136746] | 101% |
| Cc1noc(C)c1NC(=O)c1ccccn1 [CBK200299] | 95.6% |
| O=C(CNS(=O)(=O)c1ccc(Cl)c(Cl)c1Cl)N1CCOCC1 [CBK034472] | 110% |
| Cc1ccc(C(=O)Nc2ccc(N3CCCCC3)c(F)c2)c(=O)n1C [CBK281390] | 89.5% |
| COc1ccc(N2CC(C(=O)N(C)CC(F)(F)F)CC2=O)cc1 (stereo not drawn) [CBK281510] | 98.2% |
| COc1ccc(-c2cc(C(=O)NCCc3cccc(C(F)(F)F)c3)cnc2-c2ccccc2)cn1 [CBK036662] | 99.9% |
| CC1(C)CC(NC(=O)COc2ccc([N+](=O)[O-])cc2)CC(C)(C)N1 [CBK266806] | 98% |
| Cn1c(Cc2ccccc2)nnc1SCC(=O)Nc1ccc(N2CCOCC2)cc1 [CBK269750] | 89.8% |
| O=C(CC1SC(NC2CCCCC2)=NC1=O)Nc1cc(Cl)ccc1Cl (stereo not drawn) [CBK059501] | 91% |
| CCCCN(C=O)c1c(CC)nc2c(OCCOc3ccc(F)cc3)cccn12 [CBK147631] | 92.7% |
| COc1cccc(CNCC(c2ccnn2C)C(C)C)n1 (stereo not drawn) [CBK304858] | 105% |
| C=CCc1cccc(Cl)c1OCCN1CCN(C)CC1 [CBK269734C] | 90.5% |
| COc1ccc2sc(Br)c(C(=O)O)c2c1 [CBK019180] | 103% |
| OC1(Cn2ccc3ncccc32)CCN(Cc2ccccc2F)CC1 [CBK284752] | 93.3% |
| Cn1ccc(C(=O)NC(Cc2ccsc2)c2cccnc2)n1 (stereo not drawn) [CBK285117] | 107% |
| COCc1nc2n(n1)CC(NC(C)C(C)OCc1ccccc1)CC2 (stereo not drawn) [CBK304724] | 95.8% |
| NCCc1nc(-c2ccccc2)c2cnccn12 [CBK035705] | 101% |
| COc1ccc(C(C)C)cc1S(=O)(=O)NCCN1CCOCC1 [CBK266538] | 112% |
| Nc1cc(=O)[nH]c(SCC(=O)Nc2ccc(S(N)(=O)=O)cc2)n1 [CBK265021] | 91.2% |

Same assay, conditions: human, hela cells, % viability, bulk resorufin, single well

| Structure (SMILES) | viability at 28.5 h, 10 µM |
| --- | --- |
| O=C(O)c1ccccc1C(=O)N1CCC2(CC1)OCc1cc(F)ccc1O2 [CBK060863] | 109% |
